Experimental data from patent US9388216B2, “Methods of treating reproductive cancer” (Medical Research Council, priority 2006, dated 2016).
Non-standard residues stand in square brackets, D forms with d. pGlu = O=C1CC[C@@H](C(=O)O)N1

Key:
human GnRH receptor = biological target: T1, human GnRH receptor (Homo sapiens, UniProt P30968); test: Accumulation of total inositol phosphates (PLCβ activation) in HEK293/hGnRHR cells; type: cell-based
T1 construct: expressed in transfected cells
T1 sequence (P30968 1-328): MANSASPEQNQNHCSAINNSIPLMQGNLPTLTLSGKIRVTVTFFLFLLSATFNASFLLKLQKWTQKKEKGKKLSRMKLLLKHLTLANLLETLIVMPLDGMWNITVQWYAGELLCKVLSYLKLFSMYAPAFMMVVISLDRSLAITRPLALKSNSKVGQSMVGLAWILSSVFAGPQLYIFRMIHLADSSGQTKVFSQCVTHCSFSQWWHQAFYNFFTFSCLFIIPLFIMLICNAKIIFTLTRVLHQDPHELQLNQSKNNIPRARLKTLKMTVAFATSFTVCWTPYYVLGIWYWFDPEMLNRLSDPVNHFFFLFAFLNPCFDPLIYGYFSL

HEK293/rGnRHR cells = test: Cell growth inhibition (viable cell number after 5 days of continuous treatment) in HEK293/rGnRHR cells; type: cell-based, rat; details: for fold more potent than GnRH I to induce cell death / inhibit cell growth / antiproliferative/apoptotic potency compared with GnRH I (in words): rat receptor; for antiproliferative/apoptotic potency compared with GnRH I (in words): 5 days
Description: (§1) For the first method, HEK293 cells expressing various GnRH receptor constructs were seeded into 12-well PLL-coated plates at 50,000 cells (in 1 ml)/well and cultured with continuous GnRH exposure for five days, adding fresh peptide every day. Trypan Blue-excluding cells were then counted with a haemocytometer. For the second method, cells were seeded into 96-well plates at 5,000 cells (in 100 μl)/well and treated exactly as described before. 10 μl WST-1 reagent (Roche Diagnostics Ltd.; Lewes, East Sussex, UK) was added directly to each well and, after 3 h at 37° C., absorbance was read at 450 nm (with a reference at 690 nm) against a background control as blank using a microplate ELISA reader.
(§2) Bar graphs and curves were obtained using Prism 3.0 (GraphPad Software, Inc.: San Diego, Calif., USA). IC50 and EC50 values were determined by non-linear regression analysis. Curves were best-fitted to a one-site model. […] Values were normalised as specified in the figure legends.
(§3) Antiproliferation/apoptosis was estimated by determining cell number after five days of continuous exposure to the peptides. In parallel, this response was compared to the classical Gq coupled-PLCβ activation induced by GnRH peptides, as measured by the very well characterized inositol phosphates accumulation protocol. Both outputs were determined in two HEK293 cell lines; one expressing the rat receptor and the other expressing the human receptor. The human cell line was included in the study because this species may be clinically more relevant and the very low receptor expression may better reflect the in vivo tumoural state. In fact, due to poor binding, the precise affinity of the analogues on this cell line could not be determined.

rat GnRH receptor [1] = biological target: T2, rat GnRH receptor (Rattus norvegicus, UniProt P30969); test: Accumulation of total inositol phosphates (PLCβ activation) in HEK293/rGnRHR cells; type: cell-based
T2 construct: expressed in transfected cells
T2 sequence (P30969 1-327): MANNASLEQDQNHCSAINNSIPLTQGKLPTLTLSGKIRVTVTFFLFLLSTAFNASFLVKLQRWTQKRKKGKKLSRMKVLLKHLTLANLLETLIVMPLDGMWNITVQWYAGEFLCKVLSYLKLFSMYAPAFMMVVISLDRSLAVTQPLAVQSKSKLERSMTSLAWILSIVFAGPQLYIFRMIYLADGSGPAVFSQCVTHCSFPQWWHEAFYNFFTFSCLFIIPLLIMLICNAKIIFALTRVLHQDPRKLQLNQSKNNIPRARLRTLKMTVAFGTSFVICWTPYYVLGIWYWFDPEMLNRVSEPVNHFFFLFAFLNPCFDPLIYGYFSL
Description: HEK293 cells stably expressing the GnRH receptor growing on 12-well PLL-coated plates were pre-labelled with 1 μCi/ml myo-[H3]inositol (Amersham) in inositol-free DMEM (Sigma) for 48 h. On the day of the experiment, cells were washed with assay buffer (140 mM NaCl, 20 mM HEPES, 8 mM glucose, 4 mM KCl, 1 mM MgCl2, 1 mM CaCl2, 1 mg/ml BSA), pre-incubated with 10 mM LiCl (in assay buffer) for 30 min, and stimulated with different concentrations of the peptides (in the same buffer) for 1 h at 37° C. Incubations were terminated by removing the culture medium and lysing the cells in ice cold 10 mM formic acid for 30 min. Inositol phosphates were extracted by chromatography with an anion exchange resin (AG® 1-X8, Bio-Rad) using 1 M ammonium formate and 0.1 M formic acid. Liquid scintillant was added to the final eluate and [3H]inositol phosphates were measured in the β-counter.
as §2

rat GnRH receptor [2] = biological target: T2, rat GnRH receptor; test: Competition binding assay with [125I][His5,D-Trp6]GnRH I in HEK293/rGnRHR cells
Description: Cell monolayers growing on 12-well PLL-coated plates were incubated in binding buffer (10 mM HEPES, 1% BSA in DMEM) containing […] radioligand (100,000 cpm) and 10-6-10-12 M unlabelled ligand. Equilibrium was reached after incubation for 4 h at 4° C. Cells were then lysed in 0.1 M NaOH and the radioactivity in the extract was measured in a 1261 Wallac MultiGamma counter.
as §2

HEK293/hGnRHR cells = test: Cell growth inhibition (viable cell number after 5 days of continuous treatment) in HEK293/hGnRHR cells; type: cell-based, human; details: for fold more potent than GnRH I to induce cell death / inhibit cell growth / antiproliferative/apoptotic potency compared with GnRH I (in words): human receptor; for antiproliferative/apoptotic potency compared with GnRH I (in words): 5 days
Description: as §1, §2, §3

[3] = system: GnRH-induced PARP cleavage (caspase 3 activation) in HEK293/rGnRHR cells; test: Inhibition of GnRH-induced PARP cleavage by chemical inhibitors; details: for remaining GnRH I-induced PARP cleavage, mean±S.E.M.: 100 nM GnRH I plus inhibitor; for remaining GnRH I-induced PARP cleavage, mean±S.E.M. / remaining GnRH II-induced PARP cleavage, mean±S.E.M. / effect on GnRH-induced apoptosis / caspase 3 activation (in words): 48 h, complete medium; for remaining GnRH II-induced PARP cleavage, mean±S.E.M.: 100 nM GnRH II plus inhibitor
Description: Cells were maintained in Dulbecco's modified Eagles medium (DMEM) (Sigma) supplemented with 10% fetal bovine serum, 2% glutamine and 1% penicillin (10,000 units/ml)/streptomycin (10,000 μg/ml) at 37° C. in a humidified 5% CO2 atmosphere. Cell treatments were performed at 37° C. in serum-containing medium with varying molecule concentrations and time periods, as indicated in the figure legends.
After stimulation of cells growing on 6-well plates, cell monolayers were placed on ice, washed twice in ice-cod Dulbecco's phosphate buffered saline (DPBS), and lysed in a NP-40-based solubilisation buffer (5 mM HEPES, 0.25 M NaCl, 0.5% NP-40, 10% glycerol, 2 mM EDTA pH8.0, 1 mM PMSF, 0.01 mg/ml leupeptin, 1 mM Na2VO4). Solubilised lysates were clarified by centrifugation at 15,000 rpm for 15 min. A 50 μl-aliquot of clarified whole-cell lysate was mixed with an equal volume of 2× Laemmli sample buffer, resolved by SDS-polyacrylamide gel electrophoresis (SDS-PAGE) and transferred to a PVDF membrane (NEN Life Sciences/PerkinElmer Life and Analytical Sciences; Beaconsfield, Bucks, UK). These membranes were blocked in a 4% bovine serum albumin, 50 mM Tris-HCl, pH 7.0, 0.05% Tween-20 and 0.05% NP-40 blocking solution. […] Apoptosis was assessed by incubating the PVDF membranes with a 1:1,000 dilution of anticleaved PARP rabbit polyclonal antibody at 4° C. with gentle shaking overnight. […] An alkaline phosphatase conjugated IgG (Sigma) was employed as a secondary antibody in all cases. Visualization of proteins was performed using enzyme-linked chemifluoresence (Amersham Biosciences Ltd.; St. Giles, Bucks, UK) and quantified using a Typhoon 9400 Phosphorimager.
Then, cells were lysed and a western blot with specific anti-cleaved PARP antibody was carried out as explained before.

[4] = HEK293/human GnRH receptor cells

Compound: [Tyr8]GnRH I: GnRH I with Arg8 substituted by Tyr8 of GnRH II (QHWSYGLYPG; Gonadoliberin-1; UniProt P01148 24-33, looked up, variant R8Y)
- fold less potent to stimulate PLCβ relative to GnRH I (human GnRH receptor): 23.7 fold
- fold more potent to suppress cell growth relative to GnRH I (HEK293/rGnRHR cells; range across rat and human receptor cell lines (discussion)): 4-11 fold
- fold more potent than GnRH I to induce cell death / inhibit cell growth (HEK293/rGnRHR cells): 4.2 fold
- fold less potent to stimulate PLCβ compared to GnRH I (rat GnRH receptor [1]): 27.3 fold
- affinity compared with GnRH I (in words) (rat GnRH receptor [2]): very low affinity
- antiproliferative effect compared with inositol phosphate production, selectivity (in words) (HEK293/hGnRHR cells; [4]): most selective antiproliferative/apoptotic analogue
- fold more potent than GnRH I to induce cell death / inhibit cell growth (HEK293/hGnRHR cells): 10.7 fold

Compound: CO[C@H]1[C@@H](OC)C[C@H](C)[C@@H](OC)C2=CC(=O)C=C(NC(=O)/C(C)=C/C=C\[C@H](OC)[C@@H](OC(N)=O)/C(C)=C/[C@@H]1C)C2=O [herbimycin A]
- remaining GnRH I-induced PARP cleavage, mean±S.E.M. [3]: 9±1
- remaining GnRH II-induced PARP cleavage, mean±S.E.M. [3]: 41±4

Compound: [His5]GnRH I: GnRH I with Tyr5 substituted by His5 of GnRH II (QHWSHGLRPG; Gonadoliberin-1; UniProt P01148 24-33, looked up, variant Y5H)
- potency to stimulate inositol phosphates accumulation / PLCβ activation compared with GnRH I (in words) (human GnRH receptor): better potencies
- antiproliferative/apoptotic potency compared with GnRH I (in words) (HEK293/rGnRHR cells): better potencies
- potency to stimulate inositol phosphates accumulation / PLCβ activation compared with GnRH I (in words) (rat GnRH receptor [1]): better potencies
- affinity compared with GnRH I (in words) (rat GnRH receptor [2]): higher affinity than GnRH I
- antiproliferative potency (in words) (HEK293/hGnRHR cells; [4]): most potent antiproliferative/apoptotic agent ever described
- antiproliferative/apoptotic potency compared with GnRH I (in words) (HEK293/hGnRHR cells): better potencies

Compound: CC(C)(C)n1nc(-c2ccc(Cl)cc2)c2c(N)ncnc21 [PP2]
- remaining GnRH I-induced PARP cleavage, mean±S.E.M. [3]: 20±4
- remaining GnRH II-induced PARP cleavage, mean±S.E.M. [3]: 18±2

Compound: [Trp7]GnRH I: GnRH I with Leu7 replaced by Trp7 of GnRH II (QHWSYGWRPG; Gonadoliberin-1; UniProt P01148 24-33, looked up, variant L7W)
- potency to stimulate inositol phosphates accumulation / PLCβ activation compared with GnRH I (in words) (human GnRH receptor): did not modify the affinity and PLCβ activation capacity
- fold more potent than GnRH I to induce cell death / inhibit cell growth (HEK293/rGnRHR cells): 9.1 fold
- potency to stimulate inositol phosphates accumulation / PLCβ activation compared with GnRH I (in words) (rat GnRH receptor [1]): did not modify the affinity and PLCβ activation capacity
- affinity compared with GnRH I (in words) (rat GnRH receptor [2]): did not modify the affinity and PLCβ activation capacity
- fold more potent than GnRH I to induce cell death / inhibit cell growth (HEK293/hGnRHR cells): 19.3 fold

Compound: [His5,Tyr8]GnRH I: double mutant GnRH I incorporating His5 and Tyr8 of GnRH II ([pGlu]HWSHGLYPG-NH2; ends and bridges not checked; UniProt P01148 24-33, looked up, variant Y5H R8Y)
- potency to stimulate inositol phosphates accumulation / PLCβ activation compared with GnRH I (in words) (human GnRH receptor): features intermediate between GnRH I and [Tyr8]GnRH I
- antiproliferative/apoptotic potency compared with GnRH I (in words) (HEK293/rGnRHR cells): more potent to inhibit cell growth than GnRH I
- potency to stimulate inositol phosphates accumulation / PLCβ activation compared with GnRH I (in words) (rat GnRH receptor [1]): features intermediate between GnRH I and [Tyr8]GnRH I
- affinity compared with GnRH I (in words) (rat GnRH receptor [2]): features intermediate between GnRH I and [Tyr8]GnRH I
- antiproliferative/apoptotic potency compared with GnRH I (in words) (HEK293/hGnRHR cells): more potent to inhibit cell growth than GnRH I

Compound: NCCOB(c1ccccc1)c1ccccc1 [2-APB, 2-aminoethyl-diphenilborinate]
- PARP cleavage caused by the inhibitor itself (cytotoxicity) ([3]; inhibitor alone): significant PARP cleavage by themselves

Compound: COc1cccc(-c2cc(=O)c3ccccc3o2)c1N [PD98059]
- remaining GnRH I-induced PARP cleavage, mean±S.E.M. [3]: 17±6
- remaining GnRH II-induced PARP cleavage, mean±S.E.M. [3]: 14±13

Compound: COc1ccc2c(c1)c(C1=C(c3c[nH]c4ccccc34)C(=O)NC1=O)cn2CCCN(C)C [Gö 6983]
- remaining GnRH I-induced PARP cleavage, mean±S.E.M. [3]: 47±22
- remaining GnRH II-induced PARP cleavage, mean±S.E.M. [3]: 35±18
- effect on GnRH-induced apoptosis / caspase 3 activation (in words) [3]: clearly more efficient than Ro-31-8220
- extent of the effect upon GnRH-stimulated apoptosis ([3]; discussion): ~40%

Compound: [Trp7,Tyr8]GnRH I: double mutant GnRH I incorporating Trp7 and Tyr8 of GnRH II ([pGlu]HWSYGWYPG-NH2; ends and bridges not checked; UniProt P01148 24-33, looked up, variant L7W R8Y)
- potency to stimulate inositol phosphates accumulation / PLCβ activation compared with GnRH I (in words) (human GnRH receptor): almost identical to those of [Tyr8]GnRH I
- antiproliferative/apoptotic potency compared with GnRH I (in words) (HEK293/rGnRHR cells): almost identical to those of [Tyr8]GnRH I
- potency to stimulate inositol phosphates accumulation / PLCβ activation compared with GnRH I (in words) (rat GnRH receptor [1]): almost identical to those of [Tyr8]GnRH I
- affinity compared with GnRH I (in words) (rat GnRH receptor [2]): almost identical to those of [Tyr8]GnRH I
- antiproliferative/apoptotic potency compared with GnRH I (in words) (HEK293/hGnRHR cells): almost identical to those of [Tyr8]GnRH I

Compound: PTX: Gi inhibitor from Biomol
- effect on GnRH-induced apoptosis / caspase 3 activation (in words) [3]: not having any effect

Compound: Cn1cc(C2=C(c3cn(CCCSC(=N)N)c4ccccc34)C(=O)NC2=O)c2ccccc21 [Ro-31-8220]
- effect on GnRH-induced apoptosis / caspase 3 activation (in words) [3]: no effect

Compound: O=C1c2ccccc2-c2n[nH]c3cccc1c23 [JNKII inhibitor]
- remaining GnRH I-induced PARP cleavage, mean±S.E.M. [3]: 84±29
- remaining GnRH II-induced PARP cleavage, mean±S.E.M. [3]: 72±22

Compound: COc1cc2ncnc(Nc3cccc(Cl)c3)c2cc1OC [AG1478]
- remaining GnRH I-induced PARP cleavage, mean±S.E.M. [3]: 13±10
- remaining GnRH II-induced PARP cleavage, mean±S.E.M. [3]: 18±11

Compound: [His5,Trp7]GnRH I: double mutant GnRH I incorporating His5 and Trp7 of GnRH II ([pGlu]HWSHGWRPG-NH2; ends and bridges not checked; UniProt P01148 24-33, looked up, variant Y5H L7W)
- antiproliferative/apoptotic potency compared with GnRH I (in words) (HEK293/rGnRHR cells): improved antiproliferative/apoptotic capacity
- antiproliferative/apoptotic potency compared with GnRH I (in words) (HEK293/hGnRHR cells): improved antiproliferative/apoptotic capacity
